Experimental data published in ChEMBL document CHEMBL4196087 (Eur J Med Chem, 2018).
Converted amounts (≈) assume the structure as drawn.

Assays:
RPMI-8226 = test: Growth inhibition of human RPMI8226 cells at 10^-5 M incubated for 48 hrs by sulforhodamine B assay relative to control; type: functional; settings: RPMI-8226, 48 h, read-out: GI
HOP-92 = test: Growth inhibition of human HOP92 cells at 10^-5 M incubated for 48 hrs by sulforhodamine B assay relative to control; type: functional; settings: HOP-92, 48 h, read-out: GI
SK-MEL-5 = test: Growth inhibition of human SK-MEL-5 cells at 10^-5 M incubated for 48 hrs by sulforhodamine B assay relative to control; type: functional; settings: SK-MEL-5, 48 h, read-out: GI
MCF7 = test: Growth inhibition of human MCF7 cells at 10^-5 M incubated for 48 hrs by sulforhodamine B assay relative to control; type: functional; settings: MCF7, 48 h, read-out: GI
LOX IMVI = test: Growth inhibition of human LOXIMVI cells at 10^-5 M incubated for 48 hrs by sulforhodamine B assay relative to control; type: functional; settings: read-out: GI
HL-60 [1] = test: Antiproliferative activity against human HL60 cells after 48 hrs by MTT assay; type: functional, cell-based; settings: HL-60, 48 h
Bacillus subtilis [2] = test: Antibacterial activity against Bacillus subtilis at 37 degC measured after 24 hrs by CLSI M7-A4 protocol based method; type: functional
MDA-MB-468 = test: Growth inhibition of human MDA-MB-468 cells at 10^-5 M incubated for 48 hrs by sulforhodamine B assay relative to control; type: functional; settings: MDA-MB-468, 48 h, read-out: GI
HL-60(TB) = test: Growth inhibition of human HL-60(TB) cells at 10^-5 M incubated for 48 hrs by sulforhodamine B assay relative to control; type: functional; settings: HL-60, 48 h, read-out: GI
HOP-62 = test: Growth inhibition of human HOP62 cells at 10^-5 M incubated for 48 hrs by sulforhodamine B assay relative to control; type: functional; settings: HOP-62, 48 h, read-out: GI
MOLT-4 = test: Growth inhibition of human MOLT4 cells at 10^-5 M incubated for 48 hrs by sulforhodamine B assay relative to control; type: functional; settings: MOLT-4, 48 h, read-out: GI
MDA-MB-231 = test: Growth inhibition of human MDA-MB-231 cells at 10^-5 M incubated for 48 hrs by sulforhodamine B assay relative to control; type: functional; settings: MDA-MB-231, 48 h, read-out: GI
SNB-75 = test: Growth inhibition of human SNB75 cells at 10^-5 M incubated for 48 hrs by sulforhodamine B assay relative to control; type: functional; settings: SNB-75, 48 h, read-out: GI
A498 = test: Growth inhibition of human A498 cells at 10^-5 M incubated for 48 hrs by sulforhodamine B assay relative to control; type: functional; settings: A498, 48 h, read-out: GI
Staphylococcus aureus = test: Antibacterial activity against Staphylococcus aureus at 37 degC measured after 24 hrs by agar disc diffusion method; type: functional
HL-60 [3] = test: Potency index, ratio of doxorubicin IC50 to compound IC50 for antiproliferative activity against human HL60 cells; type: functional
IGROV-1 = test: Growth inhibition of human IGROV1 cells at 10^-5 M incubated for 48 hrs by sulforhodamine B assay relative to control; type: functional; settings: IGROV-1, 48 h, read-out: GI
Pseudomonas aeruginosa [4] = test: Antibacterial activity against Pseudomonas aeruginosa at 37 degC measured after 24 hrs by agar disc diffusion method; type: functional
NCI-H226 = test: Growth inhibition of human NCI-H226 cells at 10^-5 M incubated for 48 hrs by sulforhodamine B assay relative to control; type: functional; settings: NCI-H226, 48 h, read-out: GI
Escherichia coli = test: Antibacterial activity against Escherichia coli at 37 degC measured after 24 hrs by agar disc diffusion method; type: functional
CCRF-CEM = test: Growth inhibition of human CCRF-CEM cells at 10^-5 M incubated for 48 hrs by sulforhodamine B assay relative to control; type: functional; settings: read-out: GI
Pseudomonas aeruginosa [5] = test: Antibacterial activity against Pseudomonas aeruginosa at 37 degC measured after 24 hrs by CLSI M7-A4 protocol based method; type: functional
UO-31 [6] = test: Growth inhibition of human UO31 cells at 10^-5 M incubated for 48 hrs by sulforhodamine B assay relative to control; type: functional; settings: UO-31, 48 h, read-out: GI
K562 = test: Growth inhibition of human K562 cells at 10^-5 M incubated for 48 hrs by sulforhodamine B assay relative to control; type: functional; settings: K562, 48 h, read-out: GI
PC-3 = test: Growth inhibition of human PC3 cells at 10^-5 M incubated for 48 hrs by sulforhodamine B assay relative to control; type: functional; settings: PC-3, 48 h, read-out: GI
SF-539 = test: Growth inhibition of human SF539 cells at 10^-5 M incubated for 48 hrs by sulforhodamine B assay relative to control; type: functional; settings: SF-539, 48 h, read-out: GI
Bacillus subtilis [7] = test: Antibacterial activity against Bacillus subtilis at 37 degC measured after 24 hrs by agar disc diffusion method; type: functional
T47D = test: Growth inhibition of human T47D cells at 10^-5 M incubated for 48 hrs by sulforhodamine B assay relative to control; type: functional; settings: read-out: GI
HL-60 [8] = test: Antiproliferative activity against human HL60 cells after 48 hrs by SRB assay; type: functional; settings: HL-60, 48 h, read-out: LC50 (the source's name)
UO-31 [9] = test: Antiproliferative activity against human UO31 cells after 48 hrs by SRB assay; type: functional; settings: UO-31, 48 h
UO-31 [10] = test: Antiproliferative activity against human UO31 cells after 48 hrs by MTT assay; type: functional, cell-based; settings: UO-31, 48 h
UO-31 [11] = test: Potency index, ratio of doxorubicin IC50 to compound IC50 for antiproliferative activity against human UO31 cells; type: functional
SK-OV-3 = test: Growth inhibition of human SKOV3 cells at 10^-5 M incubated for 48 hrs by sulforhodamine B assay relative to control; type: functional; settings: SK-OV-3, 48 h, read-out: GI

Compound | inhibition of growth at 10 µM (HOP-92) [%] | inhibition of growth at 10 µM (LOX IMVI) [%] | inhibition of growth at 10 µM (HOP-62) [%] | inhibition of growth at 10 µM (MOLT-4) [%] | diameter of the inhibition zone (DIZ) (Staphylococcus aureus) [mm] | diameter of the inhibition zone (DIZ) (Pseudomonas aeruginosa [4]) [mm] | diameter of the inhibition zone (DIZ) (Escherichia coli) [mm] | inhibition of growth at 10 µM (UO-31 [6]) [%] | inhibition of growth at 10 µM (PC-3) [%] | diameter of the inhibition zone (DIZ) (Bacillus subtilis [7]) [mm] | inhibition of growth at 10 µM (T47D) [%] | other results
O=C(CN1CCN(c2cc3c(cc2F)c(=O)c(C(=O)O)cn3C2CC2)CC1)N/N=C/c1c[nH]c2ccccc12 | < 20 | < 20 | < 20 | 24.6 | 31 | 33 | 31 | 28.3 | < 20 | 37 | < 20 | inhibition of growth at 10 µM (RPMI-8226): < 20%; inhibition of growth at 10 µM (SK-MEL-5): < 20%; inhibition of growth at 10 µM (MCF7): 27.1%; IC50 (HL-60 [1]): 1.55 µM; MIC (Bacillus subtilis [2]): 58 µg/mL (≈ 109 µM); inhibition of growth at 10 µM (MDA-MB-468): < 20%; inhibition of growth at 10 µM (HL-60(TB)): 43%; inhibition of growth at 10 µM (MDA-MB-231): 20.9%; inhibition of growth at 10 µM (SNB-75): < 20%; inhibition of growth at 10 µM (A498): < 20%; Ratio IC50 (HL-60 [3]): 5.7; inhibition of growth at 10 µM (IGROV-1): < 20%; inhibition of growth at 10 µM (NCI-H226): < 20%; inhibition of growth at 10 µM (CCRF-CEM): 54.4%; MIC (Pseudomonas aeruginosa [5]): 30 µg/mL (≈ 56.5 µM); inhibition of growth at 10 µM (K562): < 20%; inhibition of growth at 10 µM (SF-539): < 20%; CC50 (HL-60 [8]): 15.9 µM
O=C(CN1CCN(c2cc3c(cc2F)c(=O)c(C(=O)O)cn3C2CC2)CC1)N/N=C/c1ccc(O)cc1O | – | – | – | – | 21 | 23 | 20 | – | – | 24 | – | LC50 (UO-31 [9]): 13 µM; IC50 (UO-31 [10]): 3.19 µM; Ratio IC50 (UO-31 [11]): 1.5 - 9
O=C(O)c1cn(C2CC2)c2cc(N3CCN(Cc4nnc(S)o4)CC3)c(F)cc2c1=O | < 20 | < 20 | < 20 | 23 | 24 | 27 | 25 | < 20 | 23.4 | 29 | < 20 | inhibition of growth at 10 µM (SK-OV-3): < 20%
